# Assay results as given in patent publication EP4772530A1, “PEPTIDE TARGETING SOMATOSTATIN RECEPTOR, DRUG CONJUGATE AND USE THEREOF” (Mainline Biosciences (Shanghai) Co., Ltd., priority 2023, dated 2025).
# Where “and” joins values, the source holds several entries; their conditions need not be identical. Equal entries are not always repeated. Entries after “also recorded” stand apart in the source; their conditions may differ.
# What was measured:
# [1] = test system: Human multiple myeloma MM.1S cells; experiment: EX3.3 in vivo pharmacodynamics, MM.1S subcutaneous xenograft model; parameters: species or system CB17 SCID mice; conditions: for Tumor Volume (Mean ± SEM): IV, Twice Weekly
# Description: Human multiple myeloma MM.1S cells were suspended and cultured in vitro in 1640 medium containing 10% fetal bovine serum, 100 U/mL penicillin, and 100 µg/mL streptomycin in a 5% CO2 incubator at 37°C. The suspended cells were collected by centrifugation twice a week and adherent cells were digested with trypsin-EDTA to prepare a cell suspension for subculture. When the cell saturation was 80%-90% and the cell number reached the requirement, the cells were collected, counted, and inoculated.
# CB17 SCID mice, female, 6-8 weeks old, weighing 18-22 g, provided by Zhejiang Vital River Laboratory Animal Technology Co., Ltd.
# Each mouse was subcutaneously injected with 100 µL of PBS containing 5×10^6 MM.1S cells + 100 µL of Matrigel (final volume: 200 µL) at the axilla of the right forelimb. At 20 days after injection, when the average tumor volume reached 109 mm^3, mice were grouped for dosing (vehicle control,Ixazomib Citrate, and Example 1 treatment groups, with 6 animals per group). The Ixazomib Citrate group was orally administered by gavage (4 mg/kg) twice a week; the vehicle control group (5%DMSO + 95% normal saline) and the Example 1 treatment group (1.75 mg/kg) were slowly intravenously injected for about 30 seconds each time, twice a week.
# The experimental indicators were used to investigate whether tumor growth was inhibited, delayed, or cured. The tumor diameter was measured twice a week using a vernier caliper. The tumor volume was calculated as follows: V = 0.5a×b^2, where a and b were the long and short diameters of the tumor, respectively.
# The anti-tumor efficacy of the drug was evaluated based on TGI (%) or relative tumor proliferation rate T/C (%). TGI (%) was the tumor growth inhibition rate. TGI (%) was calculated as follows: TGI (%)=[(1 -(mean tumor volume at the end of dosing in a certain treatment group - mean tumor volume at the start of dosing in the treatment group))/ (mean tumor volume at the end of dosing in the vehicle control group - mean tumor volume at the start of dosing in the vehicle control group)]× 100%.
# T/C (%) was calculated as follows:T/C (%)= TRTV/ CRTV× 100 %. Based on the results of tumor measurement, the relative tumor volume (RTV) was calculated as follows: RTV = Vt/V0, where V0 was the mean tumor volume measured at the time of grouping (i.e. d0), and Vt was the mean tumor volume at a certain measurement. Data on the same day were taken for TRTV and CRTV.
# Tumor weights were measured at the end of the experiment and T/Cweight was calculated, where Tweight and Cweight were tumor weights in the treatment and vehicle control groups, respectively.
# Statistical analysis, including the mean and standard error (SEM) of tumor volume at each time point in each group (see Table 5-1 in Section 5.2 for specific data), was performed to evaluate differences between groups based on data from the treatment group on Day 18 post-dose at the end of the experiment. A t-test was used for comparison between two groups, and one-way ANOVA was used for comparison among three or more groups. If there was a significant difference in F value, the Games-Howell method was used for testing; if there was no significant difference in F value, the Dunnet (2-sided) method was used for analysis. All data were analyzed using SPSS 17.0.
# [2] = test system: NCI-H69; experiment: Cell killing in NCI-H69 by CGT (CellTiter-Glo); format: cell-based; conditions: NCI-H69, 96 h; Inh% relative to DMSO control, 4-parameter fit
# Description: Approximately 5 µL of the PDC was added to the corresponding wells of the plate, and compared with DMSO (control, without the PDC of the present application), PTX, MMAE, and Dxd wells. The final concentration of DMSO in each well was 0.2%; • (5) The cells were incubated in a 5% CO2 incubator at 37°C for 96 h; • (6) The cell culture plate was equilibrated to room temperature, and 50 µL of CellTiter-Glo® Reagent was added to each well; • (7) The plate was placed on a shaker for 2 min to ensure complete cell lysis; • (8) After mixing, the plate was placed at room temperature to react for 10 min. The fluorescence value (in RLU) was read when the signal became stable. • c) Data analysis • (1) The inhibition (Inh %) relative to the DMSO control was calculated as follows: Inhibition (Inh%)= 100 -(RLU of compound - RLU of DMSO control)/ (RLU of DMSO control - RLU of blank)*100% • (2) The data were analyzed using Graphpad 5.0 software. A 4-parameter equation was fitted to generate a concentration-response curve to obtain the IC50. Table 3: Test Results of Cell Killing in NCI-H69
# [3] = test system: HL-60; experiment: Cell killing in HL-60 by CCK-8; format: cell-based; conditions: HL-60, 48 h
# Description: • a) Cell line: HL-60 • b) Procedure • (1) Normally cultured HL-60 cells in the logarithmic growth phase were centrifuged at 800 rpm for 5 min to discard the supernatant. Approximately 3 mL of normal medium was added to resuspend the cell pellet by gently pipetting up and down. The cells were then counted using a cell counter and inoculated onto a 96-well plate. • (2) Sample solutions with different concentration gradients were prepared. Approximately 10 µL of each solution was added to the 96-well plate, with 3 to 6 replicate wells for each concentration, and incubated in a 5% CO2 incubator at 37°C for 48 h. • (3) CCK-8 was equilibrated to room temperature before use, and 10 µL of CCK-8 solution was added to each well. • (4) The plate was incubated in the incubator for 0.5-4 h in the dark, with the incubation time depending on experimental conditions such as cell type and density. • (5) The absorbance was measured at 450 nm using a microplate reader. • c) Data analysis Cell viability = [(As−Ab)/(Ac−Ab)] × 100% [formula] Inhibition% = [(Ac−As)/(Ac−Ab)] × 100% [formula] • As: absorbance of sample well (containing cells + medium + CCK-8 solution + drug solution); • Ac: absorbance of control well (containing cells + medium + CCK-8 solution); • Ab: absorbance of blank well (containing medium + CCK-8 solution); • The results were processed and analyzed using Excel and Graphpad Prism to obtain the IC50. Table 4: Test Results of Cell Killing in HL-60 for 48 h
# [4] = 18 days after the start of dosing, Example 1 1.75 mg/kg IV twice a week
compound,measurement,setting,value
"CC[C@H](C)[C@@H]([C@@H](CC(=O)N1CCC[C@H]1[C@H](OC)[C@@H](C)C(=O)N[C@H](C)[C@@H](O)c1ccccc1)OC)N(C)C(=O)[C@@H](NC(=O)[C@H](C(C)C)N(C)C(=O)OCc1ccc(NC(=O)[C@H](CCCNC(N)=O)NC(=O)[C@@H](NC(=O)CCCCCN2C(=O)CC(SC[C@H](NC(C)=O)C(=O)NCCOCCOCC(=O)N[C@@H](CCCNC(=N)N)C(=O)N[C@@H](CCCNC(=N)N)C(=O)N[C@@H](CC(C)C)C(=O)N[C@@H](Cc3ccccc3)C(=O)N[C@H]3CSSC[C@@H](C(=O)N[C@H](C(=O)N[C@@H](Cc4c[nH]c5ccccc45)C(=O)N[C@@H](CCCNC(=N)N)C(=O)N[C@@H](CC(=O)O)C(N)=O)[C@@H](C)O)NC(=O)[C@H]([C@@H](C)O)NC(=O)[C@H](CCCCN)NC(=O)[C@@H](Cc4c[nH]c5ccccc45)NC(=O)[C@H](Cc4ccc(O)cc4)NC3=O)C2=O)C(C)C)cc1)C(C)C (stereo partly drawn) [Example 1, Cys(MC-Val-Cit-PABC-MMAE)-AEEA-Arg-Arg-Leu-Phe-[Cys-Tyr-D-Trp-Lys-Thr-Cys]-Thr-Trp-Arg-Asp-NH2]",T/C,[1]; [4],0.94%
same,TGI,[1]; [4],103.59%
same,tumor inhibition compared to the vehicle control group,"[1]; 18 days after the start of dosing, Example 1 1.75 mg/kg, p= 0.010, 1.75 mg/kg",significant tumor inhibition; also recorded: significant anti-tumor effect
same,Tumor Volume (Mean ± SEM),"[1]; Day 4, Example 1 1.75 mg/kg",144 ± 14 mm3
same,Tumor Volume (Mean ± SEM),"[1]; Day 7, Example 1 1.75 mg/kg",124 ± 13 mm3
same,Tumor Volume (Mean ± SEM),"[1]; Day 11, Example 1 1.75 mg/kg",87 ± 11 mm3
same,Tumor Volume (Mean ± SEM),"[1]; Day 14, Example 1 1.75 mg/kg",50 ± 8 mm3
same,Tumor Volume (Mean ± SEM),"[1]; Day 18, Example 1 1.75 mg/kg, 1.75 mg/kg",23 mm3 and 23 ± 5 mm3
same,Tumor Volume (Mean ± SEM),"[1]; Day 21, Example 1 1.75 mg/kg",12 ± 5 mm3
same,Tumor Volume (Mean ± SEM),"[1]; Day 25, Example 1 1.75 mg/kg",0 ± 0 mm3
same,Tumor Volume (Mean ± SEM),"[1]; Day 28, Example 1 1.75 mg/kg",0 ± 0 mm3
same,complete response rate,[1]; Example 1 1.75 mg/kg,100%
same,complete response,"[1]; Example 1 1.75 mg/kg, 6 animals in the group",all achieved a complete response
same,Bottom (Inhibition at Lowest Point),[2],2.17
same,Top (Inhibition at Highest Point),[2],79.37
same,Bottom (Inhibition at Lowest Point),[3],1.71
same,Top (Inhibition at Highest Point),[3],86.42
